Assay [1] relates to A673 NR0B1-luciferase reporter, viability-normalised luminescence. Description: reduction of NR0B1-luciferase signal in A673 cells – cell-based, luciferase luminescence, dry powder, dose response (AID 743479).
Test in assay [2]: as above
The conditions noted are these: A673 NR0B1-luciferase reporter, viability-normalised luminescence. For orientation: A reporter such as luciferase makes a cellular process visible.

Inconclusive results are not listed. Active and inactive are the calls of the source.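 Rule for the calls: active = fitted curve crosses 35% inhibition of luciferase signal below 10 µM, corrected for cell viability; inconclusive = no clear call, values can overlap the other calls; inactive = activity opposite to the expected decrease, otherwise the rest.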

Consider `COc1cccc(S(=O)(=O)N2CC[C@@H]3[C@@H](CO)Nc4ccc(-c5ccc(C#N)cc5)cc4[C@@H]32)c1`, for which the AC35 in assay [1] is 28.5 µM. With `Nc1ncnc2c1c(-c1cccc(OCc3ccccc3)c1)cn2C1CC(CN2CCCC2)C1` (stereo not given), the AC35 in assay [1] is 17.3 µM.

On to `Cc1cccc(C2C(C#N)=C(N)Oc3cc(N)ccc32)c1` (stereo not given), for which the AC35 in assay [1] is 0.705 µM. With `N#CC1=C(N)Oc2cc(N)ccc2C1c1ccccc1` (stereo not given), in assay [1], the AC35 was 16.6 µM. Still for that read-out and setting: the result for `COc1ccc(OC)c(-c2nnc3n2N=C(c2ccc(OC)c(OC)c2)CS3)c1` reads 0.0319 µM; that for `CCC(C)(C)C(=O)O[C@H]1C[C@@H](C)C=C2C=C[C@H](C)[C@H](CC[C@@H]3C[C@@H](O)CC(=O)O3)[C@H]21`, 55 µM; that for `N#CC1=C(N)Oc2cc(N)ccc2C1c1cccc(Br)c1` (stereo not given), 0.223 µM.

In the case of `CCCCc1ccc2nc(NC(=O)OC)[nH]c2c1`, the activity change, negative = inhibition in assay [2] (at 68 µM (top of the series)) is -8.52% (inactive). On to `CN(C)c1ccc2c(c1)OC(N)=C(C#N)C2c1cccc(F)c1` (stereo not given), for which the AC35 in assay [1] is 0.0309 µM. Same read-out and setting: the result for `COc1ccc(S(=O)(=O)N(C(C)=O)c2ccc(OC(C)=O)c3ccccc23)cc1[N+](=O)[O-]` reads 2.81 µM; that for `CN1c2ccc(-c3ccc(C#N)cc3)cc2[C@H]2[C@H](CCN2S(=O)(=O)c2cccc(F)c2)[C@H]1CO`, 2.35 µM; that for `Cc1ccc([N+](=O)[O-])cc1S(=O)(=O)N(C)C`, 59.7 µM. For `Cc1cc(Nc2cc(N3CCN(C)CC3)nc(Sc3ccc(NC(=O)C4CC4)cc3)n2)n[nH]1`, in assay [1], the AC35 was 39.5 µM. Regarding `CC[C@@]1(O)C(=O)OCc2c1cc1n(c2=O)Cc2cc3c(CN(C)C)c(O)ccc3nc2-1`, the AC35 in assay [1] was 0.112 µM.

Consider `COc1ccc(NC(=O)Nc2ccc3c(c2)C(=O)N([C@@H](C)CO)C[C@H](C)[C@H](CN(C)Cc2ccc4c(c2)OCO4)O3)cc1`, for which the AC35 in assay [1] was 18.8 µM. As for `C[C@]1(c2nc3c(C(N)=O)cccc3[nH]2)CCCN1`, the activity change, negative = inhibition in assay [2] (at 68 µM (top of the series)) was -14.9% (inactive).

In the case of `N#CC1=C(N)Oc2cc(O)ccc2C1c1cccc(Br)c1` (stereo not given), in assay [1], the AC35 was 2.2 µM.

For `COc1ccc(C2C(C#N)=C(N)Oc3cc(N)ccc32)cc1` (stereo not given), the AC35 in assay [1] is 53.2 µM. Same read-out and setting: the result for `COc1ccc(C(=O)CC2(O)C(=O)Nc3c(Cl)ccc(Cl)c32)cc1` (stereo not given) reads 3.21 µM; that for `Cn1cc(-c2ccncc2)c(-c2ccc(OCc3ccc4ccccc4n3)cc2)n1`, 51.7 µM; that for `COc1cccc(C2C(C#N)=C(N)Oc3cc(N)ccc32)c1` (stereo not given), 0.629 µM. As for `COc1ccc(C2=Nn3c(nnc3-c3ccccc3Cl)SC2)cc1OC`, in assay [1], the AC35 was 0.69 µM. In the case of `COc1ccccc1C1C(C#N)=C(N)Oc2cc(N)ccc21` (stereo not given), the AC35 in assay [1] was 53.1 µM. Consider `COc1ccc(-c2ccc3c(c2)[C@H]2[C@H](CCN2S(=O)(=O)c2ccc(OC)cc2)[C@@H](CO)N3)cc1`, for which the AC35 in assay [1] is 3.57 µM. On to `N#CC1=C(N)Oc2cc3c(cc2C1c1cccc(Br)c1)OCO3` (stereo not given), for which the AC35 in assay [1] was 0.0564 µM. Still for that read-out and setting: in the case of `N#CC1=C(N)Oc2cc(N)ccc2C1c1ccccc1Cl` (stereo not given) it was 26.6 µM. As to `Clc1ccc(-c2cnc3ccc(-c4ccccc4)cn23)cc1`, the activity change, negative = inhibition in assay [2] (at 16 µM (top of the series)) is 38.6% (inactive). On to `Nc1ccn([C@@H]2O[C@H](CO)[C@H](O)C2O)c(=O)n1` (stereo not given in full), for which, in assay [1], the AC35 is 1.26 µM. On to `C[C@@]1(C(=O)Nc2ccc(F)nc2)CCCN1c1nc(Nc2cc(C3CC3)[nH]n2)c2cccn2n1`, for which the AC35 in assay [1] is 2.9 µM. On to `COc1ccc(-c2cc(NC(C)=O)c3ncc(-c4ccc(OC)c(OC)c4)n3c2)cc1`, for which the activity change, negative = inhibition in assay [2] (at 68 µM (top of the series)) was -21.4% (inactive).

As to `COc1ccc(C2=Nn3c(nnc3-c3ccccc3OC)SC2)cc1OC`, the AC35 in assay [1] was 0.131 µM. The same measure, in the same setting: in the case of `CC1(C)CC(c2nc(-c3ccc4ccc(-c5ccccc5)nc4c3)c3c(N)nccn23)C1` it was 37.9 µM. The same measure, in the same setting: in the case of `COc1ccccc1-c1nnc2n1N=C(c1ccc(O)c(O)c1)CS2` it was 3.93 µM. As for `CN1c2ccc(-c3ccc(C#N)cc3)cc2[C@H]2[C@H](CCN2S(=O)(=O)c2ccc(F)cc2)[C@H]1CO`, in assay [1], the AC35 is 33.6 µM. On the same count and under the same terms, in the case of `COc1ccc(-c2cc(NC=O)c3ncc(-c4ccc(OC)c(OC)c4)n3c2)cc1` it was 0.778 µM. In the case of `COc1cc(Nc2ncc3c(n2)-c2ccc(Cl)cc2C(c2c(F)cccc2OC)=NC3)ccc1C(=O)O`, the activity change, negative = inhibition in assay [2] (at 68 µM (top of the series)) was 114% (inactive). Consider `Cc1nc(Nc2ncc(C(=O)Nc3c(C)cccc3Cl)s2)cc(N2CCN(CCO)CC2)n1`, for which, in assay [1], the AC35 is 18.9 µM. For `Cc1ccc(C2C(C#N)=C(N)Oc3cc(N)ccc32)cc1` (stereo not given), in assay [1], the AC35 is 54.6 µM. On to `O=P1(NCCCl)OCCCN1CCCl` (stereo not given), for which the activity change, negative = inhibition in assay [2] (at 135 µM (top of the series)) is 11.8% (inactive). As to `COc1cc(C2C(C#N)=C(N)Oc3cc(N(C)C)ccc32)cc2c1OCO2` (stereo not given), in assay [1], the AC35 was 0.186 µM. For the compound `COc1ccc(-c2ccc3c(c2)[C@H]2[C@H](CCN2S(=O)(=O)c2ccc(OC)cc2)[C@@H](CO)N3C)cc1`, the AC35 in assay [1] was 4.43 µM. As to `N#CC1=C(N)Oc2cc(N)ccc2C1c1cccc(F)c1` (stereo not given), the AC35 in assay [1] is 1.2 µM. For the compound `COc1ccc(C2CNC(=O)C2)cc1OC1CCCC1` (stereo not given), in assay [2] (at 68 µM (top of the series)), the activity change, negative = inhibition was -4.33% (inactive). As for `COc1ccc(C2=Nn3c(nnc3-c3ccccc3F)SC2)cc1OC`, the AC35 in assay [1] was 11.5 µM. As to `COc1cc([C@@H]2c3cc4c(cc3[C@@H](O[C@@H]3O[C@@H]5CO[C@@H](C)O[C@H]5[C@H](O)[C@H]3O)[C@H]3COC(=O)[C@H]23)OCO4)cc(OC)c1O`, the AC35 in assay [1] was 3.01 µM.

Consider `N#CC1=C(N)Oc2ccc3ccccc3c2C1c1cccc(F)c1` (stereo not given), for which the AC35 in assay [1] is 0.968 µM.

As for `O=C(Nc1c(Cl)cncc1Cl)c1ccc(OC(F)F)c(OCC2CC2)c1`, in assay [1], the AC35 was 56.9 µM. Consider `CCN(CCO)CCCOc1ccc2c(Nc3cc(CC(=O)Nc4cccc(F)c4)[nH]n3)ncnc2c1`, for which, in assay [2] (at 4.2 µM (top of the series)), the activity change, negative = inhibition is 0.506% (inactive). As to `COc1ccc(C2=Nn3c(nnc3-c3ccccc3)SC2)cc1OC`, the AC35 in assay [1] is 42.7 µM.

For `CC(C)N1c2ccccc2C(c2ccc(F)cc2)C1/C=C/C(O)CC(O)CC(=O)O` (stereo not given), in assay [1], the AC35 is 7.59 µM.

For the compound `Clc1ccccc1-c1nnc2n1N=C(c1ccc3c(c1)OCO3)CS2`, the AC35 in assay [1] was 0.75 µM.

For the compound `COc1ccc(S(=O)(=O)N2CC[C@@H]3[C@@H](CO)Nc4ccc(-c5ccc(C#N)cc5)cc4[C@@H]32)cc1`, in assay [1], the AC35 was 3.37 µM. For the compound `COc1ccccc1-c1nnc2n1N=C(c1ccc3c(c1)OCO3)CS2`, the AC35 in assay [1] was 0.0242 µM. On to `CCOC(=O)CCNc1cc(N2CCc3ccccc3CC2)nc(-c2ccccn2)n1`, for which the AC35 in assay [1] is 32.8 µM. For `COc1ccccc1S(=O)(=O)N1CC[C@@H]2[C@@H](CO)Nc3ccc(-c4ccc(C#N)cc4)cc3[C@@H]21`, in assay [1], the AC35 is 15.5 µM. In the case of `Cc1ccc(S(=O)(=O)N2CC[C@@H]3[C@@H](CO)Nc4ccc(-c5ccc(C#N)cc5)cc4[C@@H]32)cc1`, the AC35 in assay [1] was 17.2 µM. The same measure, in the same setting: in the case of `Cc1ccccc1C1C(C#N)=C(N)Oc2cc(N)ccc21` (stereo not given) it was 40.9 µM; in that of `N#CC1=C(N)Oc2cc(N)ccc2C1c1ccc2ccccc2c1` (stereo not given), 19.4 µM. As for `C=C([C@@H](O)[C@@H](C)O)[C@@H](OC)[C@]1(C)Cc2cc3cc(O[C@H]4CC(OC5CC(O)C(O)C(C)O5)C(O)C(C)O4)cc(O)c3c(O)c2C(=O)[C@H]1OC1CC(OC2CC(OC3CC(C)(O)C(O)C(C)O3)C(O)C(C)O2)C(O)C(C)O1` (stereo not given in full), the activity change, negative = inhibition in assay [2] (at 6.8 µM (top of the series)) is 12.4% (inactive).

For `COC(=O)c1ccc(C2C(C#N)=C(N)Oc3cc(N)ccc32)cc1` (stereo not given), the AC35 in assay [1] is 40.2 µM. On to `CCC(C)C(=O)OC1CC(C)C=C2C=CC(C)C(CCC(O)CC(O)CC(=O)O)C21` (stereo not given), for which, in assay [1], the AC35 was 55.5 µM. Consider `N#CC1=C(N)Oc2cc(N)ccc2C12C(=O)Nc1ccc(Br)cc12` (stereo not given), for which the AC35 in assay [1] is 43.3 µM. In the case of `O=C(c1cc(Cc2n[nH]c(=O)c3ccccc23)ccc1F)N1CCN(C(=O)C2CC2)CC1`, the AC35 in assay [1] is 238 µM. Regarding `CN1CCN(CCOc2cc(OC3CCOCC3)c3c(Nc4c(Cl)ccc5c4OCO5)ncnc3c2)CC1`, the AC35 in assay [1] is 17.3 µM. With `N#Cc1ccc(-c2ccc3c(c2)[C@H]2[C@H](CCN2S(=O)(=O)c2ccccc2F)[C@@H](CO)N3)cc1`, the AC35 in assay [1] was 7.82 µM. Still for that read-out and setting: the result for `COc1ccc(S(=O)(=O)N2CC[C@@H]3[C@@H](CO)Nc4ccc(-c5cccc(C#N)c5)cc4[C@@H]32)cc1` reads 4.71 µM. For the compound `N#CC1=C(N)Oc2cc(N)ccc2C1c1ccc(Cl)cc1` (stereo not given), the AC35 in assay [1] is 43 µM.

Consider `COc1ccc(S(=O)(=O)N2CC[C@@H]3[C@@H](CO)N(C)c4ccc(-c5ccc(F)cc5)cc4[C@@H]32)cc1`, for which the AC35 in assay [1] was 2.85 µM. For `N#CC1=C(N)Oc2cc(OC(=O)c3ccccc3)ccc2C1c1cccc(Br)c1` (stereo not given), the AC35 in assay [1] was 3.55 µM.

Turning to `COc1ccc(S(=O)(=O)N2CC[C@@H]3[C@H](CO)Nc4ccc(-c5ccc(C#N)cc5)cc4[C@@H]32)cc1`, the AC35 in assay [1] was 8.44 µM. As to `CN(C(=O)CCCOc1ccc2[nH]c(=O)ccc2c1)C1CCCCC1`, the AC35 in assay [1] was 49.6 µM.

In the case of `COc1cccc2c1C(=O)c1c(O)c3c(c(O)c1C2=O)C[C@@](O)(C(=O)CO)C[C@@H]3O[C@H]1C[C@H](N)[C@H](O)[C@H](C)O1`, the AC35 in assay [1] was 15.1 µM. Consider `COc1ccc(CNc2nc(N3CCC[C@H]3CO)ncc2C(=O)NCc2ncccn2)cc1Cl`, for which the AC35 in assay [1] is 45.2 µM. Turning to `N#Cc1ccc(-c2ccc3c(c2)[C@H]2[C@H](CCN2S(=O)(=O)c2cccc(F)c2)[C@@H](CO)N3)cc1`, in assay [1], the AC35 was 4.95 µM. Consider `CCc1c2c(nc3ccc(O)cc13)-c1cc3c(c(=O)n1C2)COC(=O)C3(O)CC` (stereo not given), for which the AC35 in assay [1] was 0.00781 µM.

The record behind these values is PubChem BioAssay AID743479 (Broad Institute, 2014).
